In this data set the test system is CT26.WT. The data set is described as follows: Subcutaneous syngeneic CT26.WT colon carcinoma mouse model, ARI-001 with anti-mCTLA-4 antibody (Example 153). The class given is in vivo. The protocol: In this example, the in vivo anti-tumor efficacy of ARI-001, an antibody against mouse CTLA-4 (mCTLA-4), and a combination of the two agents was evaluated using the subcutaneous syngeneic CT26.WT (aka CT-26) colon carcinoma mouse model.
CT26.WT cells were obtained from the ATCC and grown in RPMI 1640 medium supplemented with 10% FBS at 37° C. in a 5% CO2 atmosphere. Female Envigo BALB/c mice (BALB/cANNHsd) of 5-6 weeks old were implanted subcutaneously in the right axilla (high) on Day 0 with 5.0×10^5 cells/mouse in 200 μl using a 27-gauge needle and syringe.
ARI-001 powder was dissolved in 100% DMSO to obtain a 106.67 mg/ml dosing formulation with a pH of 7.6. The dosing solution was stored at room temperature and protected from light. The anti-mCTLA-4 9D9 was obtained from BioXcell.
All mice were sorted into study groups based on caliper estimation of tumor burden. Each study group had ten mice. The mice were distributed to ensure that the mean tumor burden for all groups was within 10% of the overall mean tumor burden for the study population. Treatment began on Day 7 at an overall mean tumor burden of 89 mm^3 (range of group means, 87-91 mm^3). All mice were dosed according to individual body weight on the day of treatment (0.2 mL/20 g for anti-mCTLA-4 and vehicle (PBS), 30 μL/20 g for ARI-001 and vehicle (DMSO)). All agents were given to the mice intraperitoneally.
Tumor measurements were recorded three times weekly. Tumor burden (mm^3) was estimated from caliper measurements by the formula for the volume of a prolate ellipsoid assuming unit density as:
Tumor burden(mm^3)=(L×W^2)/2,
The primary endpoints used to evaluate efficacy at the group level were: tumor growth delay, increased time to progression (% ITP), median ΔT/ΔC, complete and partial tumor response, and the number of tumor-free survivors at the end of the study. Tumor growth delay for this experiment was evaluated at 750 mm^3. Time to progression study for this experiment was evaluated at 2,000 mm^3. This is the IACUC required tumor burden limit, and the time to euthanasia can be thought of as a surrogate for lifespan.
In this experiment, median ΔT/ΔC was evaluated when the median control tumor burden reached 1,000 mm^3 (Day 17). A mouse was considered a putative responder if it met at least one of the following criteria: complete regression of the tumor or being at least two standard deviations larger than the median time to progression of the control group. The following are the definitions of the efficacy parameters mentioned above: ΔC and ΔT are individual mouse endpoints that are calculated for each mouse as follows:
Median ΔT/ΔC is a group endpoint. It is calculated for each day of treatment as:
The results are presented as %. When the median ΔT/ΔC is negative (the median treated tumor burden is regressing), the median ΔT/ΔC is not reported and the Median % Regression is reported instead.
Time to Evaluation Size (TES)—TES is an individual mouse endpoint and it is expressed in days from tumor implant. It is the time it takes the tumor burden to reach a specified value, and it can be calculated from any method of evaluating tumor burden (caliper measurements, BLI, anatomical imaging, etc.). It is calculated by log-linear interpolation between the two closest data points that bracket the chosen tumor burden.
Time to Progression (TP)—Time to progression is a surrogate for lifespan, time on study, or lifespan. It is used for studies that involve IACUC mandated euthanasia of animals for excessive tumor burdens (even if the animals otherwise appear normal). The mandated tumor burden limit is tumor model dependent. TP data is analyzed by Kaplan Meier methods just as traditional life span data. The Time to Progression for an individual animal is the number of days between initiation of treatment and the death or required euthanasia of that animal. […]

SMILES strings stand for the structures.

Here are results for one molecule from patent publication US20230054194A1, “Methods of Treating Cancer” (ARIAGEN, INC., priority 2018, published 2023).

`COC(=O)c1csc(C(=O)c2c[nH]c3ccccc23)n1` [ARI-001]: the “Incidence of putative responders” value (CT26.WT, ARI-001 160 mg/kg/inj., 9D9 10 mg/kg/inj.) is listed as 70%. For the same molecule, the “Tumor Growth Delay” value (CT26.WT, ARI-001 160 mg/kg/inj., 9D9 10 mg/kg/inj., intraperitoneally) amounted to 2.9 days. Where the note is “Day 17, ARI-001 160 mg/kg/inj., 9D9 10 mg/kg/inj., intraperitoneally”, the “Day 17 Median ΔT/ΔC” value is recorded as 44%. For the same molecule, the CR (complete response) is 0%. Also, the “MBW Change” value (mean body weight change during treatment, ARI-001 160 mg/kg/inj., 9D9 10 mg/kg/inj., intraperitoneally) is reported as −8.3%. The “Increase in MTP” value (median time to progression, 2,000 mm^3, relative to Group 1) came out at 40%.
